Data on one compound can be found in PMC10729476, “Functional characterization of four opsins and two G alpha subtypes co-expressed in the molluscan rhabdomeric photoreceptor” (BMC Biology, 2023).

In one test the target is T1, Limax xenopsin (Ambigolimax valentianus, UniProt A0A455SJK2).
T1 construct: wild-type xenopsin in pMT vector, C-terminal rho 1D4 tag (ETSQVAPA; tag stated, 1D4 purification), HEK293S cells, extracted in dodecyl maltoside
T1 sequence (A0A455SJK2 1-421): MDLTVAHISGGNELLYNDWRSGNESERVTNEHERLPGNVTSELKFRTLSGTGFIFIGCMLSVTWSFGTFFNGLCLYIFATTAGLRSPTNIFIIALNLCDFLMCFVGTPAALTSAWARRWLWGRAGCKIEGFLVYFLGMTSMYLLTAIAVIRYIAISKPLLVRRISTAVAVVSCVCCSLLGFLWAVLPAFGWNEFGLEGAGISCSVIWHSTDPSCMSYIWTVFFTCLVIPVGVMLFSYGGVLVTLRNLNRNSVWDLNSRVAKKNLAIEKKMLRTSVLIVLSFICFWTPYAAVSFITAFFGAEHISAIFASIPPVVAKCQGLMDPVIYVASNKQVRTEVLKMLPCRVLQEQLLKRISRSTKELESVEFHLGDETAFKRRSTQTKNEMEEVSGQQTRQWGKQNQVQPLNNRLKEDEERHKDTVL
As to the kind of experiment: UV-VIS absorption spectroscopy of reconstituted purified pigment. The format is binding. Conditions: chromophore added to expressing cells; covalent (retinylidene Schiff base to conserved Lys, general for opsins); 1% dodecyl maltoside extraction; 4 °C.

A further test addresses T2, Limax Opn5A (Ambigolimax valentianus, UniProt A0A455SGG5).
T2 construct: wild-type Opn5A in pMT vector, C-terminal rho 1D4 tag (ETSQVAPA; tag stated, 1D4 purification), HEK293S cells, extracted in dodecyl maltoside
T2 sequence (A0A455SGG5 1-425): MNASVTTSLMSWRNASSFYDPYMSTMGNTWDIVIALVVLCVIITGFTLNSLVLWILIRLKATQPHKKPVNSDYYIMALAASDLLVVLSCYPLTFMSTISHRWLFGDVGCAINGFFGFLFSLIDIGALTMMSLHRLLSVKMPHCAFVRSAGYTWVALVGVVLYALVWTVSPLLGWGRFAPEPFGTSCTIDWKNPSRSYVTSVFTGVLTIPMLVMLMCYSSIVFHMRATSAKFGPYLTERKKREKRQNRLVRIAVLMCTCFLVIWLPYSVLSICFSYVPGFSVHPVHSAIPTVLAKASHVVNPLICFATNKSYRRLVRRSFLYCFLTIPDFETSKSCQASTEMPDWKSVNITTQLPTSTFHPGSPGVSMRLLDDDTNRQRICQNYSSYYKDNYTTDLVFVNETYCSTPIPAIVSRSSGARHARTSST
Described as above. Conditions: chromophore added to expressing cells; covalent (retinylidene Schiff base to conserved Lys, general for opsins); 1% dodecyl maltoside extraction; 4 °C; low expression, impurities, spectrum fitted with. It is filed as binding.

Regarding `CC1=C(/C=C/C(C)=C/C=C\C(C)=C\C=O)C(C)(C)CCC1` [11-cis retinal], the “UV-VIS absorption spectroscopy of reconstituted purified pigment” value was “After the addition of the 11-cis retinal, opsin-based pigments were extracted” on Limax xenopsin and “After the addition of the 11-cis retinal, opsin-based pigments were extracted” on Limax Opn5A.
